Experimental data taken from PubChem BioAssay (NCI).
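Compound exposure: 48 hours, 5 concentrations, 96-well plates. GI50 marks 50% less growth. TGI denotes the concentration required for complete inhibition of growth.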

How the values were obtained:
Experiment in all cases: NCI-60 cell line screen, 48 h
[1] = tested on: 786-0 renal
[2] = tested on: A498 renal
[3] = tested on: A549 NSCLC
[4] = tested on: ACHN renal
[5] = tested on: CCRF-CEM leukemia
[6] = tested on: EKVX NSCLC
[7] = tested on: HCC-2998 colon
[8] = tested on: HCT-116 colon
[9] = tested on: HL-60(TB) leukemia
[10] = tested on: HOP-92 NSCLC
[11] = tested on: HS 578T breast
[12] = tested on: IGROV1 ovarian
[13] = tested on: K-562 leukemia
[14] = tested on: LOX IMVI melanoma
[15] = tested on: MALME-3M melanoma
[16] = tested on: MCF7 breast
[17] = tested on: MDA-MB-231 breast
[18] = tested on: MOLT-4 leukemia
[19] = tested on: OVCAR-3 ovarian
[20] = tested on: OVCAR-8 ovarian
[21] = tested on: PC-3 prostate
[22] = tested on: SF-268 CNS
[23] = tested on: SF-539 CNS
[24] = tested on: SNB-75 CNS
[25] = tested on: SR leukemia
[26] = tested on: T-47D breast
[27] = tested on: TK-10 renal
[28] = tested on: UACC-62 melanoma
[29] = tested on: UO-31 renal

SMILES: N#C/C(=C\c1ccc(Br)cc1)n1nnc2c(F)cccc21
- GI50 [1]: 1290 nM
- TGI [1]: 2910 nM
- GI50 [2]: 1360 nM
- TGI [2]: 4.65 µM
- GI50 [3]: 1930 nM
- TGI [3]: > 100 µM
- GI50 [4]: 1040 nM
- TGI [4]: 2380 nM
- GI50 [5]: 657 nM
- TGI [5]: 3.13 µM
- GI50 [6]: 1750 nM
- TGI [6]: > 100 µM
- GI50 [7]: 1710 nM
- TGI [7]: 3.18 µM
- GI50 [8]: 503 nM
- TGI [8]: 1940 nM
- GI50 [9]: 2450 nM
- TGI [9]: > 100 µM
- GI50 [10]: 156 nM
- TGI [10]: 4.48 µM
- GI50 [11]: 3.39 µM
- TGI [11]: > 100 µM
- GI50 [12]: 715 nM
- TGI [12]: 3.02 µM
- GI50 [13]: 386 nM
- TGI [13]: > 100 µM
- GI50 [14]: 1410 nM
- TGI [14]: 2770 nM
- GI50 [15]: 1440 nM
- TGI [15]: 3.93 µM
- GI50 [16]: 768 nM
- TGI [16]: > 100 µM
- GI50 [17]: 1280 nM
- TGI [17]: 4.17 µM
- GI50 [18]: 2480 nM
- TGI [18]: > 100 µM
- GI50 [19]: 275 nM
- TGI [19]: 845 nM
- GI50 [20]: 2870 nM
- TGI [20]: > 100 µM
- GI50 [21]: 472 nM
- TGI [21]: 2050 nM
- GI50 [22]: 3.11 µM
- TGI [22]: > 100 µM
- GI50 [23]: 2210 nM
- TGI [23]: 5.45 µM
- GI50 [24]: 43 nM
- TGI [24]: 5.04 µM
- GI50 [25]: 441 nM
- TGI [25]: > 100 µM
- GI50 [26]: 353 nM
- TGI [26]: 4.78 µM
- GI50 [27]: 2360 nM
- TGI [27]: 6.5 µM
- GI50 [28]: 697 nM
- TGI [28]: 2170 nM
- GI50 [29]: 1040 nM
- TGI [29]: 2240 nM
